Results on three compounds are retold here after PMC2723765 (Bioorganic & medicinal chemistry, 2009).

Where two headings read alike, the source gives them in different places.

One series can be described thus: PET studies. It counts as in vivo, C57BL/6 mice. To be noted: co-injection with excess (50 μg) non-radioactive 4.
Series [1] concerns the target CXCR4 (Mus musculus, UniProt P70658). Particulars: read-out: IC50 of ^64Cu-4 binding to mouse splenocytes; constant amount of ^64Cu-4 and increasing concentrations of non-radioactive 4, 1 h; average of three experiments.
Series [2] concerns the target CXCR4 (Homo sapiens, UniProt P61073). The series is described as follows: Transwell migration assay of Jurkat cells towards SDF-1. It counts as cell-based. Particulars: SDF-1 in lower wells.
The conditions of series [3]: cited from earlier work.

Chain of CXCR4 (Mus musculus, UniProt P70658) (P70658 whole entry): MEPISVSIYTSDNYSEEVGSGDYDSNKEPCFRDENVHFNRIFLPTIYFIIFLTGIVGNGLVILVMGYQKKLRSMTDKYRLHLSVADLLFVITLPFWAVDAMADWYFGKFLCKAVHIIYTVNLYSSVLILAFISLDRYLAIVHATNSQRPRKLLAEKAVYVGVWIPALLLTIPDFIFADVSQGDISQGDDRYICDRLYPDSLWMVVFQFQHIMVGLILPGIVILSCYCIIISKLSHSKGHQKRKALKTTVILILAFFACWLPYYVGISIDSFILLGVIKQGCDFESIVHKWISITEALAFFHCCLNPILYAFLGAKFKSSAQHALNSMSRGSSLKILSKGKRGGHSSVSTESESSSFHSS
Chain of CXCR4 (Homo sapiens, UniProt P61073) (P61073 whole entry): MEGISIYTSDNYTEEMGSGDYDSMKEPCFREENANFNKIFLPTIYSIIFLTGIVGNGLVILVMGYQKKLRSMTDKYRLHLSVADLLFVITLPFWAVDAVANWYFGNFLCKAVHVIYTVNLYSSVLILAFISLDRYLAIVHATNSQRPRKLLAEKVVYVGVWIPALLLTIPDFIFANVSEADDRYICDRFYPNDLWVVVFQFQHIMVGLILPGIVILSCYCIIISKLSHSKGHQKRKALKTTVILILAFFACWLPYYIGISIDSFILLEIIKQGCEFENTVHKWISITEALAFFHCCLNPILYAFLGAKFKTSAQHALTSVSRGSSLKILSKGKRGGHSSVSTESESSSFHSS

For orientation: IC50 means the concentration that inhibits the measured activity by half. On to `CC(=O)[O-].CC(=O)[O-].[64Cu+2].c1cc(CN2CCCNCCNCCCNCC2)ccc1CN1CCCNCCNCCCNCC1` [^64Cu-4, [^64Cu]-1′-{1,4-phenylenebis(methylene)}-bis{1,4,8,11-tetraaza-cyclotetradecane}copper acetate], for which the “PET: uptake in spleen and liver after blocking” value in “PET studies” is on record as “undetectable levels”. At CXCR4 [1], the concentration for half-maximal inhibition (IC50) stood at 46.9 µM. For the same compound, where the note is “1 h post i.v. injection”, the “Uptake in BM” value worked out at 14 % ID/g, the “Uptake in LN” value came out at 10 % ID/g, the Uptake in blood amounted to 1.7 % ID/g and the Uptake in kidneys was determined as 10 % ID/g. For the setting “1 h post i.v. injection”, the Uptake in liver was found to be 41 % ID/g, the Uptake in muscle came to 0.3 % ID/g and the Uptake in spleen amounted to 13 % ID/g. Moreover, under “2 h post injection”, the Accumulation in blood was < 1 % ID/g and the Accumulation in liver came to 49 % ID/g. Further, under “6 h post injection”, the “Change of accumulation in spleen, LN, liver and BM” value was “slight increase”. Further, the “Change of accumulation in kidneys” value (co-injection of excess (50 μg) non-labeled 4) was “corresponding increase in accumulation”. Moreover, the “Reduction of accumulation in liver” value (co-injection of excess (50 μg) non-labeled 4, 2 h) was 79%. For the same compound, for the setting “co-injection of excess (50 μg) non-labeled 4, 6 h”, the “Reduction of accumulation in liver” value worked out at 74%. For the setting “co-injection of excess (50 μg) non-labeled 4, versus accumulation after 2 or 6 h”, the “Reduction of accumulation in all immune related organs” value is 60–80%.

On to “SDF-1: chemokine stromal cell-derived factor-1, native ligand for CXCR4”, for which the “Lowest concentration that induces maximal migration of Jurkat cells” value with CXCR4 [2] was determined as 100 ng/mL.

Take “^99Tc- SDF-1: SDF-1 labeled with ^99Tc, imaging agent for myocardial infarction”: in series [3], the “Accumulation in infarcted myocardium” value is given as 0.6 % ID/g and the “Accumulation in normal myocardium” value is 0.1 % ID/g.
